Measured values: ChEMBL document CHEMBL2311509, “Synthesis and antiproliferative evaluation of 3-phenylquinolinylchalcone derivatives against non-small cell lung cancers and breast cancers” (Eur J Med Chem, 2013)

Tested on: MDA-MB-231
Test: Antiproliferative activity against human MDA-MB-231 cells after 72 hrs by XTT assay
Assay type: functional, cell-based
Conditions: MDA-MB-231, 72 h
With `COc1ccc(-c2cc3ccccc3nc2C=O)cc1` the IC50 was > 10 µM. `COc1ccc(-c2cc3ccccc3nc2/C=C/C(=O)c2cc(OC)cc(OC)c2)cc1` showed an IC50 of 0.92 µM. With `CC[C@@]1(O)C(=O)OCc2c1cc1n(c2=O)Cc2cc3c(CN(C)C)c(O)ccc3nc2-1` [TOPOTECAN] the IC50 was < 0.1 µM. For `COc1ccc(-c2cc3ccccc3nc2/C=C/C(=O)c2ccc(N)cc2)cc1`, the IC50 was 7.51 µM. In the case of `COc1ccc(-c2cc3ccccc3nc2/C=C/C(=O)c2ccsc2)cc1`, the IC50 is reported as 1.06 µM. Work on `COc1ccc(-c2cc3ccccc3nc2/C=C/C(=O)c2ccccn2)cc1` yielded an IC50 of 0.74 µM. In the case of `COc1ccc(-c2cc3ccccc3nc2/C=C/C(=O)c2sccc2N)cc1`, the IC50 is reported as > 10 µM. `COc1ccc(-c2cc3ccccc3nc2/C=C/C(=O)c2ccc(OC)cc2OC)cc1` showed an IC50 of 3.21 µM. For `COc1ccc(-c2cc3ccccc3nc2/C=C/C(=O)c2cnc(N)nc2C)cc1`, the IC50 was > 10 µM. With `COc1ccc(-c2cc3ccccc3nc2/C=C/C(=O)c2c[nH]c3ccccc23)cc1` the IC50 was > 10 µM.

Tested on: not listed separately
Test: Growth inhibition of human H1299 cells
Assay type: functional
Conditions: NCI-H1299
For `Fc1ccc2nc(-c3ccc(OCCN4CCCCC4)cc3)c(-c3ccc(OCCN4CCCCC4)cc3)cc2c1`, the GI50 was 1.46 µM.

Tested on: SK-BR-3
Test: Antiproliferative activity against human SKBR3 cells after 72 hrs by XTT assay
Assay type: functional, cell-based
Conditions: SK-BR-3, 72 h
In the case of `COc1ccc(-c2cc3ccccc3nc2C=O)cc1`, the IC50 is reported as > 10 µM. Work on `COc1ccc(-c2cc3ccccc3nc2/C=C/C(=O)c2cc(OC)cc(OC)c2)cc1` yielded an IC50 of 0.47 µM. In the case of `CC[C@@]1(O)C(=O)OCc2c1cc1n(c2=O)Cc2cc3c(CN(C)C)c(O)ccc3nc2-1` [TOPOTECAN], the IC50 is reported as 8.91 µM. Work on `COc1ccc(-c2cc3ccccc3nc2/C=C/C(=O)c2ccc(N)cc2)cc1` yielded an IC50 of 8.56 µM. Work on `COc1ccc(-c2cc3ccccc3nc2/C=C/C(=O)c2ccsc2)cc1` yielded an IC50 of 0.66 µM. Work on `COc1ccc(-c2cc3ccccc3nc2/C=C/C(=O)c2ccccn2)cc1` yielded an IC50 of 0.37 µM. In the case of `COc1ccc(-c2cc3ccccc3nc2/C=C/C(=O)c2sccc2N)cc1`, the IC50 is reported as > 10 µM. `COc1ccc(-c2cc3ccccc3nc2/C=C/C(=O)c2ccc(OC)cc2OC)cc1` showed an IC50 of 2.26 µM. With `COc1ccc(-c2cc3ccccc3nc2/C=C/C(=O)c2cnc(N)nc2C)cc1` the IC50 was > 10 µM. Compound `COc1ccc(-c2cc3ccccc3nc2/C=C/C(=O)c2c[nH]c3ccccc23)cc1` has an IC50 of 3.45 µM.

Tested on: not listed separately
Test: Antiproliferative activity against human H184B5F5/M10 cells after 72 hrs by XTT assay
Assay type: functional, cell-based
Conditions: H184B5F5/M10, 72 h
With `COc1ccc(-c2cc3ccccc3nc2C=O)cc1` the IC50 was > 10 µM. `COc1ccc(-c2cc3ccccc3nc2/C=C/C(=O)c2cc(OC)cc(OC)c2)cc1` showed an IC50 of 6.66 µM. For `CC[C@@]1(O)C(=O)OCc2c1cc1n(c2=O)Cc2cc3c(CN(C)C)c(O)ccc3nc2-1` [TOPOTECAN], the IC50 was > 10 µM. Work on `COc1ccc(-c2cc3ccccc3nc2/C=C/C(=O)c2ccc(N)cc2)cc1` yielded an IC50 of 9.29 µM. Work on `COc1ccc(-c2cc3ccccc3nc2/C=C/C(=O)c2ccsc2)cc1` yielded an IC50 of 6.39 µM. Work on `COc1ccc(-c2cc3ccccc3nc2/C=C/C(=O)c2ccccn2)cc1` yielded an IC50 of 4.14 µM. In the case of `COc1ccc(-c2cc3ccccc3nc2/C=C/C(=O)c2sccc2N)cc1`, the IC50 is reported as > 10 µM. Work on `COc1ccc(-c2cc3ccccc3nc2/C=C/C(=O)c2ccc(OC)cc2OC)cc1` yielded an IC50 of 6.11 µM. With `COc1ccc(-c2cc3ccccc3nc2/C=C/C(=O)c2cnc(N)nc2C)cc1` the IC50 was > 10 µM. With `COc1ccc(-c2cc3ccccc3nc2/C=C/C(=O)c2c[nH]c3ccccc23)cc1` the IC50 was > 10 µM.

Tested on: A549
Test: Antiproliferative activity against human A549 cells after 72 hrs by XTT assay
Assay type: functional, cell-based
Conditions: A549, 72 h
In the case of `COc1ccc(-c2cc3ccccc3nc2C=O)cc1`, the IC50 is reported as > 10 µM. `COc1ccc(-c2cc3ccccc3nc2/C=C/C(=O)c2cc(OC)cc(OC)c2)cc1` gave an IC50 of 9.52 µM. `COc1ccc(-c2cc3ccccc3nc2/C=C/C(=O)c2ccc(N)cc2)cc1` showed an IC50 of 7.53 µM. `COc1ccc(-c2cc3ccccc3nc2/C=C/C(=O)c2ccsc2)cc1` gave an IC50 of 8.21 µM. `COc1ccc(-c2cc3ccccc3nc2/C=C/C(=O)c2ccccn2)cc1` gave an IC50 of 6.14 µM. For `COc1ccc(-c2cc3ccccc3nc2/C=C/C(=O)c2sccc2N)cc1`, the IC50 was > 10 µM. For `COc1ccc(-c2cc3ccccc3nc2/C=C/C(=O)c2ccc(OC)cc2OC)cc1`, the IC50 was 7.99 µM. In the case of `COc1ccc(-c2cc3ccccc3nc2/C=C/C(=O)c2cnc(N)nc2C)cc1`, the IC50 is reported as > 10 µM. In the case of `COc1ccc(-c2cc3ccccc3nc2/C=C/C(=O)c2c[nH]c3ccccc23)cc1`, the IC50 is reported as > 10 µM.

Tested on: MDA-MB-231
Test: Growth inhibition of human MDA-MB-231 cells
Assay type: functional
Conditions: not given
Compound `Fc1ccc2nc(-c3ccc(OCCN4CCCCC4)cc3)c(-c3ccc(OCCN4CCCCC4)cc3)cc2c1` has a GI50 of 0.72 µM.

Tested on: MCF7
Test: Antiproliferative activity against human MCF7 cells after 72 hrs by XTT assay
Assay type: functional, cell-based
Conditions: MCF7, 72 h
In the case of `COc1ccc(-c2cc3ccccc3nc2C=O)cc1`, the IC50 is reported as > 10 µM. With `COc1ccc(-c2cc3ccccc3nc2/C=C/C(=O)c2cc(OC)cc(OC)c2)cc1` the IC50 was 3.23 µM. In the case of `CC[C@@]1(O)C(=O)OCc2c1cc1n(c2=O)Cc2cc3c(CN(C)C)c(O)ccc3nc2-1` [TOPOTECAN], the IC50 is reported as 5.97 µM. Compound `COc1ccc(-c2cc3ccccc3nc2/C=C/C(=O)c2ccc(N)cc2)cc1` has an IC50 of 6.92 µM. With `COc1ccc(-c2cc3ccccc3nc2/C=C/C(=O)c2ccsc2)cc1` the IC50 was 6.01 µM. Compound `COc1ccc(-c2cc3ccccc3nc2/C=C/C(=O)c2ccccn2)cc1` has an IC50 of 0.81 µM. With `COc1ccc(-c2cc3ccccc3nc2/C=C/C(=O)c2sccc2N)cc1` the IC50 was > 10 µM. `COc1ccc(-c2cc3ccccc3nc2/C=C/C(=O)c2ccc(OC)cc2OC)cc1` showed an IC50 of 6.26 µM. For `COc1ccc(-c2cc3ccccc3nc2/C=C/C(=O)c2cnc(N)nc2C)cc1`, the IC50 was > 10 µM. For `COc1ccc(-c2cc3ccccc3nc2/C=C/C(=O)c2c[nH]c3ccccc23)cc1`, the IC50 was > 10 µM.

Tested on: not listed separately
Test: Growth inhibition of human Hep3B cells
Assay type: functional, Hep 3B2
Conditions: not given
In the case of `Fc1ccc2nc(-c3ccc(OCCN4CCCCC4)cc3)c(-c3ccc(OCCN4CCCCC4)cc3)cc2c1`, the GI50 is reported as 0.71 µM.

Tested on: not listed separately
Test: Antiproliferative activity against human H1299 cells after 72 hrs by XTT assay
Assay type: functional, cell-based
Conditions: NCI-H1299, 72 h
With `COc1ccc(-c2cc3ccccc3nc2C=O)cc1` the IC50 was > 10 µM. Compound `COc1ccc(-c2cc3ccccc3nc2/C=C/C(=O)c2cc(OC)cc(OC)c2)cc1` has an IC50 of 0.93 µM. For `CC[C@@]1(O)C(=O)OCc2c1cc1n(c2=O)Cc2cc3c(CN(C)C)c(O)ccc3nc2-1` [TOPOTECAN], the IC50 was 6.02 µM. With `COc1ccc(-c2cc3ccccc3nc2/C=C/C(=O)c2ccc(N)cc2)cc1` the IC50 was 6.51 µM. Work on `COc1ccc(-c2cc3ccccc3nc2/C=C/C(=O)c2ccsc2)cc1` yielded an IC50 of 1.22 µM. Work on `COc1ccc(-c2cc3ccccc3nc2/C=C/C(=O)c2ccccn2)cc1` yielded an IC50 of 0.66 µM. In the case of `COc1ccc(-c2cc3ccccc3nc2/C=C/C(=O)c2sccc2N)cc1`, the IC50 is reported as > 10 µM. In the case of `COc1ccc(-c2cc3ccccc3nc2/C=C/C(=O)c2ccc(OC)cc2OC)cc1`, the IC50 is reported as 3.77 µM. In the case of `COc1ccc(-c2cc3ccccc3nc2/C=C/C(=O)c2cnc(N)nc2C)cc1`, the IC50 is reported as > 10 µM. With `COc1ccc(-c2cc3ccccc3nc2/C=C/C(=O)c2c[nH]c3ccccc23)cc1` the IC50 was > 10 µM.

Tested on: not listed separately
Test: Antiproliferative activity against human H460 cells after 72 hrs by XTT assay
Assay type: functional, cell-based
Conditions: NCI-H460, 72 h
In the case of `COc1ccc(-c2cc3ccccc3nc2C=O)cc1`, the IC50 is reported as > 10 µM. With `COc1ccc(-c2cc3ccccc3nc2/C=C/C(=O)c2cc(OC)cc(OC)c2)cc1` the IC50 was 7.52 µM. Work on `CC[C@@]1(O)C(=O)OCc2c1cc1n(c2=O)Cc2cc3c(CN(C)C)c(O)ccc3nc2-1` [TOPOTECAN] yielded an IC50 of 7.29 µM. Compound `COc1ccc(-c2cc3ccccc3nc2/C=C/C(=O)c2ccc(N)cc2)cc1` has an IC50 of 7.4 µM. Work on `COc1ccc(-c2cc3ccccc3nc2/C=C/C(=O)c2ccsc2)cc1` yielded an IC50 of 7.08 µM. With `COc1ccc(-c2cc3ccccc3nc2/C=C/C(=O)c2ccccn2)cc1` the IC50 was 6.26 µM. For `COc1ccc(-c2cc3ccccc3nc2/C=C/C(=O)c2sccc2N)cc1`, the IC50 was > 10 µM. `COc1ccc(-c2cc3ccccc3nc2/C=C/C(=O)c2ccc(OC)cc2OC)cc1` gave an IC50 of 7.04 µM. With `COc1ccc(-c2cc3ccccc3nc2/C=C/C(=O)c2cnc(N)nc2C)cc1` the IC50 was > 10 µM. With `COc1ccc(-c2cc3ccccc3nc2/C=C/C(=O)c2c[nH]c3ccccc23)cc1` the IC50 was 8.01 µM.
